Assay results as given in the supplement of paper PMC11451515.

Tested on: SEM cells
Experiment: cell viability relative to DMSO control; higher = less cytotoxic
Details: 48 h
Summary of the method: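 Viability is expressed as a percentage of DMSO wells within each plate, and cell-free wells serve as background. Seeding densities in the 1536-well plates (5 μl) were 500 cells/well for NOMO1 or SEM leukemia cells and 1000 cells/well for P12-Ichikawa. Each line was adapted for at least four passages in each medium. Library compounds in DMSO were pin-dosed at 47 μM to 0.79 nM (11 points, threefold), and CellTiter-Glo One luminescence was read after 48 h at 37°C.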

[1] = HPLM + 10% dialyzed FBS, 0.000781 µM
[2] = HPLM + 10% dialyzed FBS, 0.00234 µM
[3] = HPLM + 10% dialyzed FBS, 0.00702 µM
[4] = HPLM + 10% dialyzed FBS, 0.0211 µM
[5] = HPLM + 10% dialyzed FBS, 0.0632 µM
[6] = HPLM + 10% dialyzed FBS, 0.19 µM
[7] = HPLM + 10% dialyzed FBS, 0.569 µM
[8] = HPLM + 10% dialyzed FBS, 1.71 µM
[9] = HPLM + 10% dialyzed FBS, 5.12 µM
[10] = HPLM + 10% dialyzed FBS, 15.4 µM
[11] = HPLM + 10% dialyzed FBS, 46.1 µM
[12] = RPMI 5 mM glucose + 10% FBS, 0.000781 µM
[13] = RPMI 5 mM glucose + 10% FBS, 0.00234 µM
[14] = RPMI 5 mM glucose + 10% FBS, 0.00702 µM
[15] = RPMI 5 mM glucose + 10% FBS, 0.0211 µM
[16] = RPMI 5 mM glucose + 10% FBS, 0.0632 µM
[17] = RPMI 5 mM glucose + 10% FBS, 0.19 µM
[18] = RPMI 5 mM glucose + 10% FBS, 0.569 µM
[19] = RPMI 5 mM glucose + 10% FBS, 1.71 µM
[20] = RPMI 5 mM glucose + 10% FBS, 5.12 µM
[21] = RPMI 5 mM glucose + 10% FBS, 15.4 µM
[22] = RPMI 5 mM glucose + 10% FBS, 46.1 µM
[23] = RPMI 5 mM glucose + 10% dialyzed FBS, 0.000781 µM
[24] = RPMI 5 mM glucose + 10% dialyzed FBS, 0.00234 µM
[25] = RPMI 5 mM glucose + 10% dialyzed FBS, 0.00702 µM
[26] = RPMI 5 mM glucose + 10% dialyzed FBS, 0.0211 µM
[27] = RPMI 5 mM glucose + 10% dialyzed FBS, 0.0632 µM
[28] = RPMI 5 mM glucose + 10% dialyzed FBS, 0.19 µM
[29] = RPMI 5 mM glucose + 10% dialyzed FBS, 0.569 µM
[30] = RPMI 5 mM glucose + 10% dialyzed FBS, 1.71 µM
[31] = RPMI 5 mM glucose + 10% dialyzed FBS, 5.12 µM
[32] = RPMI 5 mM glucose + 10% dialyzed FBS, 15.4 µM
[33] = RPMI 5 mM glucose + 10% dialyzed FBS, 46.1 µM

Row | SMILES | cell viability [1] [%] | cell viability [2] [%] | cell viability [3] [%] | cell viability [4] [%] | cell viability [5] [%] | cell viability [6] [%] | cell viability [7] [%] | cell viability [8] [%] | cell viability [9] [%] | cell viability [10] [%] | cell viability [11] [%] | cell viability [12] [%] | cell viability [13] [%] | cell viability [14] [%] | cell viability [15] [%] | cell viability [16] [%] | cell viability [17] [%] | cell viability [18] [%] | cell viability [19] [%] | cell viability [20] [%] | cell viability [21] [%] | cell viability [22] [%] | cell viability [23] [%] | cell viability [24] [%] | cell viability [25] [%] | cell viability [26] [%] | cell viability [27] [%] | cell viability [28] [%] | cell viability [29] [%] | cell viability [30] [%] | cell viability [31] [%] | cell viability [32] [%] | cell viability [33] [%]
1 | CCN1C[C@H](C)[N]2C(=C(O)C3=C2\C(=N/N(CC4=CC=C(F)C(=C4)Cl)C3=O)C(=O)NC)C1=O | 104 | 103 | 105 | 107 | 106 | 102 | 109 | 50.4 | 98.5 | 100 | 94 | 115 | 115 | 117 | 103 | 110 | 106 | 105 | 18 | 100 | 103 | 98.9 | 101 | 121 | 125 | 117 | 125 | 121 | 122 | 51.6 | 115 | 112 | 105
2 | CN(C)C1=CC(=CC=C1)C\2=C\3C(=O)N(NC3=C/C(=O)N2C)C4=CC=CC=C4Cl | 98.5 | 105 | 111 | 107 | 102 | 103 | 98.1 | 16.9 | 5.63 | 5.04 | 6.91 |  |  |  |  |  |  |  |  |  |  |  | 109 | 109 | 136 | 116 | 104 | 124 | 95.9 | 7.24 | 5.43 | 6.87 | 7.46
3 | O=S(=O)([O-])CCS.[Na+] | 96.5 | 104 | 100 | 96.9 | 113 | 113 | 122 | 107 | 100 | 116 | 107 | 101 | 102 | 89.6 | 124 | 107 | 115 | 109 | 124 | 112 | 123 | 122 | 109 | 104 | 108 | 108 | 114 | 137 | 130 | 135 | 121 | 137 | 155
4 | Cc1cc(OCCC[S+](C)(=O)[O-])cc(C)c1-c1cccc(COc2ccc3c(c2)OC[C@H]3CC(=O)O)c1 | 104 | 113 | 110 | 104 | 107 | 101 | 96.5 | 99.9 | 98.3 | 112 | 91.1 | 105 | 104 | 105 | 114 | 103 | 91.8 | 106 | 98.4 | 85.7 | 98.6 | 63.1 | 97.7 | 132 | 109 | 118 | 95.5 | 108 | 109 | 105 | 93.1 | 105 | 65
5 | O=[N+]([O-])c1ncc[nH]1 | 86 | 88.2 | 99.9 | 93.1 | 74.6 | 88 | 76.1 | 84 | 89.3 | 79.9 | 55.1 | 98.2 | 91.2 | 94.5 | 113 | 94.9 | 93.5 | 87.2 | 81.3 | 93.9 | 100 | 74.3 | 108 | 97.4 | 101 | 101 | 90.4 | 93.7 | 94.8 | 85.8 | 108 | 106 | 49.8
6 | O=C(O)CCCCC(CCSCc1ccccc1)SCc1ccccc1 (stereo not drawn) | 87.7 | 116 | 111 | 110 | 104 | 115 | 113 | 131 | 111 | 119 | 102 | 106 | 102 | 91.5 | 101 | 118 | 124 | 110 | 121 | 115 | 107 | 99.6 | 100 | 106 | 121 | 138 | 116 | 117 | 108 | 125 | 117 | 108 | 93.5
7 | CCN(CC)CCOc1ccc(Cc2ccccc2)cc1 | 102 | 101 | 110 | 88.4 | 92.2 | 102 | 104 | 89.4 | 87.1 | 75.9 | 46.6 | 107 | 98 | 98.9 | 102 | 95.5 | 102 | 91.9 | 88.4 | 44.9 | 11.8 | 9.79 | 108 | 102 | 101 | 113 | 93.8 | 110 | 104 | 101 | 85.1 | 19.4 | 16.9
8 | CCOC(=O)C(C#N)C\1C2=CC(=CC=C2O\C(=C1C(=O)OCC)N)Br (stereo not drawn) | 93.4 | 102 | 117 | 49.8 | 113 | 99.9 | 99.5 | 105 | 95.1 | 86.1 | 63.8 | 113 | 116 | 114 | 44.5 | 116 | 117 | 113 | 113 | 101 | 98 | 57.6 | 84.8 | 99.1 | 103 | 49.8 | 108 | 99.1 | 83.6 | 105 | 87.2 | 82.3 | 55.2
9 | O=C(Nc1nnc(-c2ccco2)o1)c1cc(-c2ccccc2)nc2ccccc12 | 87.5 | 96.5 | 96.3 | 95 | 91.5 | 110 | 95.3 | 106 | 103 | 93 | 4.54 | 92.6 | 75.1 | 95.6 | 79.7 | 104 | 95.6 | 98.2 | 85 | 41.3 | 5.04 | 2.95 | 91.8 | 94.2 | 104 | 101 | 107 | 109 | 99 | 95.3 | 106 | 77.8 | 3.49
10 | CC(C)=CCC/C(C)=C/CC/C(C)=C/CSc1ccccc1C(=O)O | 97.5 | 116 | 111 | 97.3 | 93.2 | 81.2 | 80 | 67.3 | 58.3 | 30.3 | 8.4 | 118 | 124 | 111 | 119 | 117 | 106 | 96.6 | 71.8 | 62.4 | 22.3 | 2.67 | 94.6 | 105 | 84.7 | 106 | 97.8 | 99.1 | 74.8 | 71.2 | 62.5 | 33.8 | 8.59
11 | NC(=O)[C@H]1CCS[C@@H]2C[C@]3(CCCN3C(=O)Cc3ccc(NC(=O)COc4ccc(Cl)cc4Cl)cc3)C(=O)N12 | 96.1 | 101 | 94 | 107 | 104 | 103 | 97.7 | 61.4 | 38 | 28.2 | 31.5 | 105 | 106 | 112 | 107 | 121 | 103 | 85.7 | 18.4 | 16.2 | 19.6 | 10.2 | 115 | 102 | 123 | 120 | 113 | 114 | 117 | 66.6 | 35.1 | 20.8 | 19.9
12 | CCC(C)N1\N=C/N(C1=O)C2=CC=C(C=C2)N3CCN(CC3)C4=CC=C(OC[C@H]5CO[C@@](C[N]6C=NC=N6)(O5)C7=CC=C(Cl)C=C7Cl)C=C4 (stereo partly drawn) | 94.1 | 106 | 119 | 116 | 119 | 124 | 105 | 122 | 120 | 112 | 107 |  |  |  |  |  |  |  |  |  |  |  | 78.4 | 116 | 115 | 116 | 113 | 98.6 | 109 | 115 | 115 | 117 | 105
13 | O=C1\C=C/C=C2/[C@H]3CNC[C@H](C3)CN12 | 97.4 | 95.2 | 103 | 108 | 101 | 106 | 114 | 104 | 102 | 112 | 103 | 101 | 104 | 102 | 113 | 123 | 114 | 103 | 127 | 113 | 112 | 61.2 | 108 | 76.6 | 101 | 118 | 112 | 123 | 120 | 119 | 126 | 103 | 113
14 | C[C@H](CCC(=O)O)[C@H]1CCC2C3C[C@H](O)[C@@H]4C[C@H](O)CC[C@]4(C)C3CC[C@@]21C (stereo partly drawn) |  |  |  |  |  |  |  |  |  |  |  | 109 | 122 | 129 | 131 | 135 | 102 | 103 | 117 | 123 | 107 | 108 |  |  |  |  |  |  |  |  |  |  | 
15 | Clc1cccc(-n2nnnc2NCc2ccccc2Oc2ccccn2)c1Cl | 102 | 123 | 124 | 133 | 123 | 131 | 128 | 125 | 127 | 139 | 138 |  |  |  |  |  |  |  |  |  |  |  | 116 | 149 | 125 | 140 | 113 | 126 | 149 | 129 | 148 | 147 | 119
16 | C[C@@H]1O[C@@H](O[C@H]2C[C@@H](O)[C@]3(CO)[C@H]4[C@H](O)C[C@]5(C)[C@@H](C6=CC(=O)OC6)CC[C@]5(O)[C@@H]4CC[C@]3(O)C2)[C@H](O)[C@H](O)[C@H]1O | 85.4 | 99.6 | 93.6 | 85.8 | 17.8 | 9.08 | 7.03 | 5.97 | 7.25 | 6.63 | 6.23 | 109 | 113 | 114 | 106 | 109 | 14.9 | 7.93 | 6.18 | 8 | 7.1 | 6.23 | 104 | 100 | 97.3 | 98.3 | 60 | 12.6 | 7.03 | 6.93 | 8.44 | 7.07 | 7.5
